Experimental data reported in BindingDB's records for doi:10.1111/cbdd.12241 (Chengde Medical University, 2014).

Biological target: T1, Glycogen phosphorylase, muscle form (Oryctolagus cuniculus, UniProt P00489)
T1 sequence (P00489 whole entry): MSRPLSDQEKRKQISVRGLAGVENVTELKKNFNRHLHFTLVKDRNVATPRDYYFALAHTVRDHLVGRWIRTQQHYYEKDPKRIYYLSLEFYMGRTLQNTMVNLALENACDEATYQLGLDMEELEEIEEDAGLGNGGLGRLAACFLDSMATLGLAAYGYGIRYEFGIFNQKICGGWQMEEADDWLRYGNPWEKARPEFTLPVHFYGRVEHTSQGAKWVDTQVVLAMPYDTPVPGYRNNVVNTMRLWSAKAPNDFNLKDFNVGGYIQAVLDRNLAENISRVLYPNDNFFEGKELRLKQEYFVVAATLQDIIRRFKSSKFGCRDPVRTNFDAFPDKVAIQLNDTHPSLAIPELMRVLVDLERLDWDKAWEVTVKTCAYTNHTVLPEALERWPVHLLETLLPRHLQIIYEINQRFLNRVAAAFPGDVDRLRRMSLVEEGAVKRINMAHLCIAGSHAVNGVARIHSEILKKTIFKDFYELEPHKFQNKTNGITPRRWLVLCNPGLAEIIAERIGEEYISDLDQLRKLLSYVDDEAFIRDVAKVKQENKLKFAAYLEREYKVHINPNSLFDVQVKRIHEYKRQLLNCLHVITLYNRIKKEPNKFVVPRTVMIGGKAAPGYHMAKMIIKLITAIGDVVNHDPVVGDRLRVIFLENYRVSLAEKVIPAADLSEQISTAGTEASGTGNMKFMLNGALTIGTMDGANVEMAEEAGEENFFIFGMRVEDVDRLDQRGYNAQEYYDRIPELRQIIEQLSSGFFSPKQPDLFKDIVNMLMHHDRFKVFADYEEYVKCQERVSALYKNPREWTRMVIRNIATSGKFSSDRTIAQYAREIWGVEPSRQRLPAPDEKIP
Assay: Inhibition Assay
Details: pH 7.2; 22 °C
Experimental: Each compound was dissolved in DMSO and diluted at different concentrations. RMGPa was added to 100 µL of buffer (50 mM Hepes pH 7.2, 100 mM KCl, 2.5 mM MgCl2, 0.5 mM glucose-1-phosphate, 1 mg/mL glycogen, and compound in 96-well microplates. Reaction was […] by the addition of 150 µL of 1 M HCl containing 10 mg/mL ammonium molybdate and 0.38 mg/mL malachite green and run for 25 min at 22 C.

For `CCCCCCCCCC(=O)OCc1cn(CC(=O)O[C@H]2CC[C@]3(C)[C@H]4CC=C5[C@@H]6CC(C)(C)CC[C@]6(C(=O)O)CC[C@@]5(C)[C@]4(C)CC[C@H]3C2(C)C)nn1` [3b-[2-(4-decanoyloxymethyl-1H-1,2,3-triazol-1-yl)acetoxy]olean-12-en-28-oic acid (Compound 8b)], the IC50 was 25.6 µM.

With `CCCCCCCCCCCC(=O)OCc1cn(CC(=O)O[C@H]2CC[C@]3(C)[C@H]4CC=C5[C@@H]6CC(C)(C)CC[C@]6(C(=O)O)CC[C@@]5(C)[C@]4(C)CC[C@H]3C2(C)C)nn1` [3b-[2-(4-dodecanoyloxymethyl-1H-1,2,3-triazol-1-yl)acetoxy]olean-12-en-28-oic acid (Compound 8c)] the IC50 was 8.4 µM.

In the case of `CCCCCCCCC(=O)OCc1cn(CC(=O)O[C@H]2CC[C@]3(C)[C@H]4CC=C5[C@@H]6CC(C)(C)CC[C@]6(C(=O)O)CC[C@@]5(C)[C@]4(C)CC[C@H]3C2(C)C)nn1` [3b-[2-(4-nonanoyloxymethyl-1H-1,2,3-triazol-1-yl)acetoxy]olean-12-en-28-oic acid (Compound 8a)], the IC50 is reported as 77.1 µM.

In the case of `CCCCCCCCCCCCCCCC(=O)OCc1cn(CC(=O)O[C@H]2CC[C@]3(C)[C@H]4CC=C5[C@@H]6CC(C)(C)CC[C@]6(C(=O)O)CC[C@@]5(C)[C@]4(C)CC[C@H]3C2(C)C)nn1` [3b-[2-(4-palmitoyloxymethyl-1H-1,2,3-triazol-1-yl)acetoxy]olean-12-en-28-oic acid (Compound 8d)], the IC50 is reported as 221 µM.

Work on `CCCCCCCCCCCCCCCCCC(=O)OCc1cn(CC(=O)O[C@H]2CC[C@]3(C)[C@H]4CC=C5[C@@H]6CC(C)(C)CC[C@]6(C(=O)O)CC[C@@]5(C)[C@]4(C)CC[C@H]3C2(C)C)nn1` [3b-[2-(4-stearoyloxymethyl-1H-1,2,3-triazol-1-yl)acetoxy]olean-12-en-28-oic acid (Compound 8e)] yielded an IC50 of 11.2 µM.

In the case of `COc1ccc(C(=O)OCc2cn(CC(=O)O[C@H]3CC[C@]4(C)[C@H]5CC=C6[C@@H]7CC(C)(C)CC[C@]7(C(=O)O)CC[C@@]6(C)[C@]5(C)CC[C@H]4C3(C)C)nn2)cc1` [3b-{2-[4-(4-methoxybenzoyloxy)methyl-1H-1,2,3-triazol-1-yl]acetoxy}olean-12-en-28-oic acid (Compound 8f)], the IC50 is reported as 34.6 µM.

For `CCCCCCCCCC(=O)OCc1cn(CC(=O)O[C@H]2CC[C@]3(C)[C@H]4CC=C5[C@@H]6CC(C)(C)CC[C@]6(C(=O)OCc6ccccc6)CC[C@@]5(C)[C@]4(C)CC[C@H]3C2(C)C)nn1` [Benzyl 3b-[2-(4-decanoyloxymethyl-1H-1,2,3-triazol-1-yl)acetoxy]olean-12-en-28-oate (Compound 7b)], the IC50 was 144 µM.

`CCCCCCCCC(=O)OCc1cn(CC(=O)O[C@H]2CC[C@]3(C)[C@H]4CC=C5[C@@H]6CC(C)(C)CC[C@]6(C(=O)OCc6ccccc6)CC[C@@]5(C)[C@]4(C)CC[C@H]3C2(C)C)nn1` [Benzyl 3b-[2-(4-nonanoyloxymethyl-1H-1,2,3-triazol-1-yl)acetoxy]olean-12-en-28-oate (Compound 7a)] gave an IC50 of 80.1 µM.

`CC1(C)CC[C@]2(C(=O)OCc3ccccc3)CC[C@]3(C)C(=CC[C@@H]4[C@@]5(C)CC[C@H](OC(=O)Cn6cc(COC(=O)Cc7ccc8ccccc8c7)nn6)C(C)(C)[C@@H]5CC[C@]43C)[C@@H]2C1` [Benzyl 3b-{2-[4-(2-naphthalen-2-yl)acetoxymethyl-1H-1,2,3-triazol-1-yl]acetoxy}olean-12-en-28-oate (Compound 7g)] was tested, and the IC50 was 23.9 µM.

`COc1ccc(C(=O)OCc2cn(CC(=O)O[C@H]3CC[C@]4(C)[C@H]5CC=C6[C@@H]7CC(C)(C)CC[C@]7(C(=O)OCc7ccccc7)CC[C@@]6(C)[C@]5(C)CC[C@H]4C3(C)C)nn2)cc1` [Benzyl 3b-{2-[4-(4-methoxybenzoyloxy)methyl-1H-1,2,3-triazol-1-yl]acetoxy}olean-12-en-28-oate (Compound 7f)] showed an IC50 of 38.9 µM.

`CC1(C)CC[C@]2(C(=O)OCc3ccccc3)CC[C@]3(C)C(=CC[C@@H]4[C@@]5(C)CC[C@H](O)C(C)(C)[C@@H]5CC[C@]43C)[C@@H]2C1` [benzyl (4aS,6aS,6bR,8aR,10S,12aR,12bR,14bS)-10-hydroxy-2,2,6a,6b,9,9,12a-heptamethyl-1,3,4,5,6,7,8,8a,10,11,12,12b,13,14b-tetradecahydropicene-4a-carboxylate (Compound 4)] showed an IC50 of 461 µM.
